Type in all cases: in vivo
Test [1] deals with Matricaria inodora. Kind of test: greenhouse test, post-emergence treatment, MATIN. To be noted: 2000 g/ha. An excerpt:
(§1) The culture containers used were plastic flowerpots containing loamy sand with approximately 3.0% of humus as the substrate. The seeds of the test plants were sown separately for each species.
(§2) For the post-emergence treatment, the test plants were first grown to a height of 3 to 15 cm, depending on the plant habit, and only then treated with the active ingredients which had been suspended or emulsified in water. For this purpose, the test plants were either sown directly and grown in the same containers, or they were first grown separately as seedlings and transplanted into the test containers a few days prior to treatment.
(§3) Depending on the species, the plants were kept at 10-25° C. or 20-35° C., respectively.
(§4) The test period extended over 2 to 4 weeks. During this time, the plants were tended, and their response to the individual treatments was evaluated.
(§5) Evaluation was carried out using a scale from 0 to 100. 100 means no emergence of the plants, or complete destruction of at least the aerial moieties, and 0 means no damage, or normal course of growth. A good herbicidal activity is given at values of at least 70 and a very good herbicidal activity is given at values of at least 85.
(§6) The plants used in the greenhouse experiments were of the following species: […]

The test system of test [2] is Echinocloa crus-galli. Kind of test: greenhouse test, post-emergence treatment, ECHCG. To be noted: post-emergence. The essentials: (§7)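 Visual rating on a 0-100 scale (100 = aerial parts destroyed or no emergence) was made 2-4 weeks after treating plants of 3-15 cm height with water-suspended or emulsified compound. Pots held loamy sand with approximately 3.0% humus; temperature 10-25 °C or 20-35 °C according to species.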

Test [3] concerns Echinocloa crus-galli. Kind of test: greenhouse test, pre-emergence treatment, ECHCG. A digest of the protocol: (§8)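 Scores run from 0, normal growth, to 100, no emergence or aerial parts destroyed, assessed after 2 to 4 weeks at 10-25 °C or 20-35 °C depending on species. Actives in water were spray-applied immediately post-sowing onto loamy sand with approximately 3.0% humus; hoods kept on until rooting.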

Test [4] concerns Poa annua. Kind of test: greenhouse test, pre-emergence treatment, POAAN.
Excerpt: as §1
For the pre-emergence treatment, the active ingredients, which had been suspended or emulsified in water, were applied directly after sowing by means of finely distributing nozzles. The containers were irrigated gently to promote germination and growth and subsequently covered with transparent plastic hoods until the plants had rooted. This cover caused uniform germination of the test plants, unless this had been impaired by the active ingredients.
as §3, §4, §5, §6

In test [5] the test system is Amaranthus retroflexus. Kind of test: greenhouse test, post-emergence treatment, AMARE. A digest of the protocol: as §7
Test [6] has as its system Abutilon theophrasti. Kind of test: greenhouse test, post-emergence treatment, ABUTH.
Excerpt: as §1, §2, §3, §4, §5, §6

For test [7], the system named is Alopecurus myosuroides. Kind of test: greenhouse test, post-emergence treatment, ALOMY. To be noted: post-emergence. A digest of the protocol:
as §7

In test [8] the test system is Apera spica-venti. Description: greenhouse test, pre-emergence treatment, APESV. A digest of the protocol: as §8
Test [9] concerns Avena fatua. Kind of test: greenhouse test, post-emergence treatment, AVEFA. To be noted: 2000 g/ha. The essentials: as §7
In test [10] the test system is Setaria viridis. Description: greenhouse test, post-emergence treatment, SETVI.
Excerpt: as §1, §2, §3, §4, §5, §6

For `OC(Cc1nc(C2CC2)ncc1-c1ccccc1Cl)c1c(Cl)ccc(Cl)c1Cl` (centres unmarked) [Ex. 231], the figures for the herbicidal activity result in [1] and in test [2] (2000 g/ha) were “good (A good herbicidal activity is given at values of at least 70)” and “very good (a very good herbicidal activity is given at values of at least 85)”, respectively.
In the case of `COC(=O)C(O)(CO)c1nc(C2CC2)ncc1-c1ccccc1Cl` (centres unmarked) [Ex. 230], the herbicidal activity result in [1] is reported as “good (A good herbicidal activity is given at values of at least 70)”.
On to `Brc1cc(-c2nc(C3CC3)ncc2-c2ccccc2Br)co1` [Ex. 268], for which the herbicidal activity entry in [3] (1000 g/ha), in test [4] (1000 g/ha) and in test [2] (1000 g/ha) was “very good (a very good herbicidal activity is given at values of at least 85)” throughout.
On to `Clc1cncc(-c2nc(C3CC3)ncc2-c2ccccc2Cl)c1` [Ex. 279], for which the herbicidal activity entry in test [5] (1000 g/ha), in test [6] (1000 g/ha), in test [7] (1000 g/ha), in test [3] (1000 g/ha) and in test [8] (1000 g/ha) was “very good (a very good herbicidal activity is given at values of at least 85)” throughout.
Take `CC(C)=CC(O)Cc1nc(C2CC2)ncc1-c1ccccc1Cl` (centres unmarked) [Ex. 223]: the herbicidal activity result in test [5] (2000 g/ha), in [6] (2000 g/ha), in test [3] (2000 g/ha), in [4] (2000 g/ha), in test [2] (2000 g/ha) and in [8] (2000 g/ha) was “very good (a very good herbicidal activity is given at values of at least 85)” throughout.
Regarding `Clc1ccccc1-c1cnc(C2CC2)nc1-c1ccncn1` [Ex. 225], the herbicidal activity result in [7] (2000 g/ha), in test [3] (2000 g/ha), in test [4] (2000 g/ha), in test [2] (2000 g/ha), in test [9] and in test [8] (2000 g/ha) was “very good (a very good herbicidal activity is given at values of at least 85)” in each case.
Regarding `CC(C)(O)c1nc(C2CC2)ncc1-c1ccccc1Cl` [Ex. 86], the herbicidal activity entry in [5] (1000 g/ha) is “good (A good herbicidal activity is given at values of at least 70)”; in test [6] (1000 g/ha), “good (A good herbicidal activity is given at values of at least 70)”; in test [10] (1000 g/ha), “very good (a very good herbicidal activity is given at values of at least 85)”; in test [8] (1000 g/ha) it was “good (A good herbicidal activity is given at values of at least 70)”.
Turning to `CSc1ncc(-c2nc(C3CC3)ncc2-c2ccccc2Cl)cn1` [Ex. 248], the herbicidal activity result in [7] (2000 g/ha), in test [3] (2000 g/ha), in test [4] (2000 g/ha), in test [2] (2000 g/ha), in test [10] (2000 g/ha) and in [8] (2000 g/ha) was “very good (a very good herbicidal activity is given at values of at least 85)” each time.
For the compound `Fc1cccc(Cl)c1-c1cnc(C2CC2)nc1-c1ccoc1` [Ex. 41], the herbicidal activity entry in test [7] (2000 g/ha) and in test [1] was “very good (a very good herbicidal activity is given at values of at least 85)” in each case.
In the case of `Cc1nc(C)c(-c2nc(C3CC3)ncc2-c2cc(C(F)(F)F)ccc2Cl)o1` [Ex. 278], the herbicidal activity result in test [5] (1000 g/ha), in test [6] (1000 g/ha), in [3] (1000 g/ha), in [2] (1000 g/ha) and in [8] (1000 g/ha) was “very good (a very good herbicidal activity is given at values of at least 85)” in each case.
For the compound `C=Cc1nc(C2CC2)ncc1-c1ccccc1Cl` [Ex. 211], the herbicidal activity result was “good (A good herbicidal activity is given at values of at least 70)” in test [7] (2000 g/ha), “good (A good herbicidal activity is given at values of at least 70)” in test [4] (2000 g/ha), “very good (a very good herbicidal activity is given at values of at least 85)” in test [2] (2000 g/ha) and “good (A good herbicidal activity is given at values of at least 70)” in test [8] (2000 g/ha).
For the compound `Clc1ccccc1-c1cnc(C2CC2)nc1-c1cccs1` [Ex. 29], the herbicidal activity result in [5] (2000 g/ha) and in test [1] was “very good (a very good herbicidal activity is given at values of at least 85)” each time.
In the case of `CC(=O)Cc1nc(C2CC2)ncc1-c1ccccc1Cl` [Ex. 146], the herbicidal activity result in [6] (2000 g/ha), in test [3] (2000 g/ha), in [2] (2000 g/ha), in test [10] (2000 g/ha) and in test [8] (2000 g/ha) was “very good (a very good herbicidal activity is given at values of at least 85)” throughout.
With `CC1(C)OC(c2nc(C3CC3)ncc2-c2ccccc2Cl)C(C)(C)O1` (centres unmarked) [Ex. 266], the herbicidal activity result in test [5] (1000 g/ha), in test [6] (1000 g/ha), in [7] (1000 g/ha), in test [3] (1000 g/ha) and in [8] (1000 g/ha) was “very good (a very good herbicidal activity is given at values of at least 85)” each time.
`OC(c1nc(C2CC2)ncc1-c1ccccc1Cl)C(O)c1c(Cl)ccc(Cl)c1Cl` (centres unmarked) [Ex. 241]: the herbicidal activity result in test [4] (2000 g/ha) is “very good (a very good herbicidal activity is given at values of at least 85)”; in test [2] (2000 g/ha) it was “good (A good herbicidal activity is given at values of at least 70)”.
Consider `CC1OC1c1nc(C2CC2)ncc1-c1ccccc1Br` (centres unmarked) [Ex. 213], for which the herbicidal activity result was “very good (a very good herbicidal activity is given at values of at least 85)” in test [7] (2000 g/ha); “good (A good herbicidal activity is given at values of at least 70)” in test [3] (2000 g/ha); “good (A good herbicidal activity is given at values of at least 70)” in test [4] (2000 g/ha); “very good (a very good herbicidal activity is given at values of at least 85)” in [2] (2000 g/ha); “very good (a very good herbicidal activity is given at values of at least 85)” in [9]; “good (A good herbicidal activity is given at values of at least 70)” in test [8] (2000 g/ha).
As to `Clc1ccc(Cl)c(/C=C/c2nc(C3CC3)ncc2-c2ccccc2Cl)n1` [Ex. 257], the herbicidal activity entry in [1] was “good (A good herbicidal activity is given at values of at least 70)”.

For the origin of these results see US11178871B2, “Herbicidal pyrimidine compounds” (BASF SE, priority 2016, dated 2021).
